Test system: Mäusen
Test: step down passive avoidance test (improvement of memory performance)
Type: in vivo, Mäuse
Conditions: Mus musculus, ip; mice, i.p. within 10 s after foot shock; retest after 24 h; compared with solvent controls; read-out: Dosis, bei der sich eine Verbesserung der Gedächtnisleistung zeigen lässt
Source text: Zur unmittelbaren Messung der Verbesserung der Gedächtnisleistung wird ein anderer passiver Vermeidungstest (step down passive avoidance test, Psychopharmacol. 63, 297-300 [1979]) verwendet: • Die Testvorrichtung besteht aus einer mit Tageslicht normal beleuchteten Box (50 x 50 x 50 cm) mit einem elektrisch leitenden Gitterrost, dessen Gitterstäbe (6 mm Durchmesser) in einem Abstand von jeweils 13 mm angeordnet sind. In der Mitte des Gitterrostes ist eine hölzerne Plattform (10 mm Höhe, 67 mm Durchmesser) angebracht, welche von einer Plastikröhre (20 cm hoch, 68 mm innerer Durchmesser) umgeben ist. Zur Durchführung des Trainings werden Gruppen von jeweils 30 männlichen Mäusen mit einem Körpergewicht von 20-22g verwendet, indem jeweils ein Tier auf die von der Plastikröhre umgebene Plattform gesetzt, nach 10 Sekunden die Plastikröhre entfernt und die Zeitdauer gemessen wird, welche das Tier zum Hinabsteigen und Berühren des Gitterrostes mit allen 4 Pfoten benötigt. Wenn alle 4 Pfoten den Gitterrost berühren, wird ein Fussschock (1 mA, 50 Hz, 1 Sekunde) verabreicht. Innerhalb von 10 Sekunden nach Verabreichung des Fussschocks werden die Testsubstanzen in Dosen von 3 mg/kg, 10 mg/kg und 30 mg/kg (für jede Dosis werden 30 Mäuse verwendet) als Lösung in physiologischer NaCl-Lösung oder deren Lösungsmittel (physiologische Natriumchloridlösung = Placebo) intraperitoneal verabreicht. […]

## NC(=O)CNC(=O)CNC(=O)CN1CCCC1=O [N-[(2-Oxo-1-pyrrolidinyl)-acetyl]-glycyl-glycinamid]
  minimal effective dose: 10 mg/kg

Source: patent publication EP0115472A2, “Pyrrolidinon derivatives and process for their preparation” (CIBA-GEIGY AG, priority 1983, dated 1984)
